# Legend:
# Mtb H37Rv = experiment: Minimum inhibitory concentration; conditions: for fold drop/change in potency (MIC) relative to parent compound 1: versus lead 1
# [1] = test system: murine macrophage cell line J774.1; experiment: Cytotoxicity by Alamar Blue, 3 days; assay type: cell-based; conditions: J774.1 cells, two-fold dilutions starting at 60 µM
# IκB kinase β = conditions: cited from earlier work
# Mtb = conditions: in Mtb; cited from earlier work
Molecule,fold drop/change in potency (MIC) relative to parent compound 1 (Mtb H37Rv),other results
"O=C(Nc1ccccc1C(F)(F)F)c1cc(Cl)ccc1O [Compound 28, 5-Chloro-2-hydroxy-N-(2-trifluoromethyl-phenyl)-benzamide]",,fold loss in activity on moving single CF3 from meta to ortho (Mtb H37Rv; versus meta-CF3 compound 27): 4–8 fold
N-(3-Bromo-5-(trifluoromethyl)phenyl)-5-chloro-2-hydroxy-benzamide [Compound 74],,IC50 [1]: 5.8 µM
"O=C(Nc1cc(C(F)(F)F)cc(C(F)(F)F)c1)c1cc(I)ccc1O [Compound 9, N-(3,5-Bis(trifluoromethyl)phenyl)-2-hydroxy-5-iodobenzamide]",2 fold,
"O=C(Nc1cc(C(F)(F)F)cc(C(F)(F)F)c1)c1cc(F)ccc1O [Compound 7, N-(3,5-Bis(trifluoromethyl)phenyl)-5-fluoro-2-hydroxy-benzamide]",2 fold,
"O=C(Nc1cc(C(F)(F)F)cc(C(F)(F)F)c1)c1cc(Cl)ccc1O [Compound 1, N-(3,5-bis(trifluoromethyl)phenyl)-5-chloro-2-hydroxybenzamide]",,inhibition of IκB kinase β (IκB kinase β): potent inhibitor
"O=C(Nc1cc(C(F)(F)F)cc(C(F)(F)F)c1)c1cc(Br)ccc1O [Compound 8, N-(3,5-Bis(trifluoromethyl)phenyl)-5-bromo-2-hydroxybenzamide]",2 fold,
"O=C(Nc1cccc(Br)c1)c1cc(Cl)ccc1O [Compound 35, N-(3-Bromophenyl)-5-chloro-2-hydroxybenzamide]",2–4 fold,
"O=C(Nc1ccccc1)c1cc(Cl)ccc1O [Compound 26, 5-Chloro-2-hydroxy-N-phenylbenzamide]",4–8 fold,
"O=C(Nc1cc(C(F)(F)F)cc(C(F)(F)F)c1)c1ccccc1O [Compound 2, N-(3,5-Bis(trifluoromethyl)phenyl)-2-hydroxybenzamide]",2–4 fold,
O=C(Nc1ccc([N+](=O)[O-])cc1Cl)c1cc(Cl)ccc1O [niclosamide],,effect on membrane potential and pH homeostasis (Mtb): disruption of membrane potential and pH homeostasis
"O=C(Nc1cccc(F)c1)c1cc(Cl)ccc1O [Compound 34, 5-Chloro-N-(3-fluorophenyl)-2-hydroxybenzamide]",2–4 fold,

# Reference: article PMC3525752 (Bioorganic & medicinal chemistry, 2012)
